Measured values taken from patent US20240207444A1, “LIPID NANOPARTICLES CONTAINING POLYNUCLEOTIDES ENCODING PHENYLALANINE HYDROXYLASE AND USES THEREOF” (ModernaTX, Inc., priority 2021, published 2024).

assay: Residual parent lipid levels in the liver of mice; type: in vivo, CD-1 mice; details: calculation assumes a 25 g mouse with a 1.5 g liver, >95% equals very slow metabolism of the lipid
Protocol: To assess potency of expression and metabolic stability of lipids of the disclosure, hepatocyte protein expression (hEPO) was measured following administration to mice of a nanoparticle of the disclosure.
Lipid nanoparticles including DSPC as a phospholipid, cholesterol as a structural lipid, Compound I as a PEG lipid, an ionizable amino lipid of Formula (II), and an mRNA encoding hEPO were intravenously administered to CD-1 mice. The concentration of hEPO in serum was tested at 6 hours after injection.

Approx. Percent Total Dose of Parent Lipid Remaining at 24 h | Structure (SMILES)
<0.1%^ | CCCCCCCCC(CCCCCCCC)OC(=O)CCCCCCCN(CCO)CCCCCCCC(=O)OCCCC(CCCCC)CCCCC [Compound 31]
0.9 ± 0.06% ^ | CCCCCC(CCCCC)OC(=O)CCCCCCCN(CCCCCCCC(=O)OCCC(CCC)CCC)CCCNc1c(NC)c(=O)c1=O [Compound 65]
<0.1%^ | CCCCCCCCC(CCCCCCCC)OC(=O)CCCCCCCN(CCO)CCCCCCCC(=O)OCCC1CCC(CC)C1 (stereo not shown) [Compound 37]
<0.1%^ | CCCCCC(CCCCC)CCCOC(=O)CCCCCCCN(CCO)CCCCCCCC(=O)OCCCC(CCCCC)CCCCC [Compound 33]
6 ± 0.3% ^ | CCCCCC(CCCCC)OC(=O)CCCCCCCN(CCCCCCCC(=O)OCCC(CCCC)CCCC)CCCNc1c(NC)c(=O)c1=O [Compound 61]
9 ± 0.8% ^ | CCCCCCC(CCCCCC)OC(=O)CCCCCCCN(CCCCCCCC(=O)OCCC(CCCC)CCCC)CCCNc1c(NC)c(=O)c1=O [Compound 60]
2 ± 0.9% ^ | CCCCC(CCCC)CCOC(=O)CCCCCCCN(CCCCCCCC(=O)OC(CCCC)CCCC)CCCNc1c(NC)c(=O)c1=O [Compound 62]
<0.1%^ | CCCCCCCCC(CCCCCCCC)OC(=O)CCCCCCCN(CCO)CCCCCCCC(=O)OCCC1CCC(CC)CC1 (stereo not shown) [Compound 35]
6 ± 0.8% ^ | CCCCCCC(CCCCCC)OC(=O)CCCCCCCN(CCCCCCCC(=O)OCCC(CCC)CCC)CCCNc1c(NC)c(=O)c1=O [Compound 64]
9 ± 3% ^ | CCCCCCCC(CCCCCCC)OC(=O)CCCCCCCN(CCCCCCCC(=O)OCCC(CCC)CCC)CCCNc1c(NC)c(=O)c1=O [Compound 63]
